Data on five compounds can be found in patent US11414436B2, “Non-coordinating anion type activators containing cation having large alkyl groups” (ExxonMobil Chemical Patents Inc., priority 2018, dated 2022).

Several values for one entry are separate records, joined by “and”; a condition that tells them apart may be missing. Identical values can stand only once.

Series [1] in a line: Ethylene-octene copolymerization in parallel pressure reactor, non-metallocene catalyst CAT-4. Particulars: catalyst CAT-4 20 nmol; activator 1.1 equiv; 100° C.; 135 psi; 1-octene 100 uL; TNOAL 0.5 umol. The procedure: (§1) Solutions of the metal complexes and activators were prepared in a drybox using toluene or methylcyclohexane. Concentrations were typically 0.2 mmol/L. Tri-n-octylaluminum (TNOAL, neat, AkzoNobel) was typically used as a scavenger. Concentration of the TNOAL solution in toluene ranged from 0.5 to 2.0 mmol/L.
(§2) Polymerizations were carried out in a parallel pressure reactor, as generally described in U.S. Pat. Nos. 6,306,658; 6,455,316; 6,489,168; WO 00/09255; and Murphy, V. et al. (2003) “A Fully Integrated High-Throughput Screening Methodology for the Discovery of New Polyolefin Catalysts: Discovery of a New Class of High Temperature Single-Site Group (IV) Copolymerization Catalysts,” J. Am. Chem. Soc., v. 125, pp. 4306-4317, each of which is fully incorporated herein by reference. […] Although the specific quantities, temperatures, solvents, reactants, reactant ratios, pressures, and other variables are frequently changed from one polymerization run to the next, the following describes a typical polymerization performed in a parallel pressure reactor.
(§3) Ethylene-Octene Copolymerization (EO).
(§4) A pre-weighed glass vial insert and disposable stirring paddle were fitted to each reaction vessel of the reactor, which contains 48 individual reaction vessels. The reactor was then closed and purged with ethylene. Each vessel was charged with enough solvent (typically isohexane) to bring the total reaction volume, including the subsequent additions, to the desired volume, typically 5 mL. 1-octene, if required, was injected into the reaction vessel and the reactor was heated to the set temperature and pressurized to the predetermined pressure of ethylene, while stirring at 800 rpm. The aluminum compound (such as tri-n-octylaluminum) in toluene was then injected as scavenger followed by addition of the activator solution (typically 1.0-1.2 molar equivalents).
(§5) The catalyst (and activator solutions for Run A) were all prepared in toluene. The catalyst solution (typically 0.020-0.080 μmol of metal complex) was injected into the reaction vessel and the polymerization was allowed to proceed until a pre-determined amount of ethylene (quench value typically 20 psi) had been used up by the reaction. Alternatively, the reaction may be allowed to proceed for a set amount of time (maximum reaction time typically 30 minutes). Ethylene was added continuously (through the use of computer controlled solenoid valves) to the autoclaves during polymerization to maintain reactor gauge pressure (P setpt, +/−2 psig) and the reactor temperature (T) was monitored and typically maintained within +/−1° C. The reaction was quenched by pressurizing the vessel with compressed air. After the reactor was vented and cooled, the glass vial insert containing the polymer product and solvent was removed from the pressure cell and the inert atmosphere glove box, and the volatile components were removed using a Genevac HT-12 centrifuge and Genevac VC3000D vacuum evaporator operating at elevated temperature and reduced pressure. The vial was then weighed to determine the yield of the polymer product. The resultant polymer was analyzed by Rapid GPC (see below) to determine the molecular weight, by FT-IR (see below) to determine percent octene incorporation, and by DSC (see below) to determine melting point (Tm).
(§6) Equivalence is determined based on the mole equivalents relative to the moles of the transition metal in the catalyst complex.
(§7) Activators of the present disclosure can also be used for activating non-metallocene catalysts for polymerization of olefins. Table 4 illustrates copolymerization of ethylene and octene using activators of the present disclosure and non-metallocene catalysts (CAT-1, CAT-2, CAT-3, and CAT-4).

The nature of series [2]: Solubility studies of the activators (saturated solution in isohexane or methylcyclohexane). Format: physicochemical. Particulars: methylcyclohexane.
Series [3] can be described thus: Ethylene-octene copolymerization in parallel pressure reactor, non-metallocene catalyst CAT-3. Particulars: catalyst CAT-3 20 nmol; activator 1.1 equiv; 100° C.; 135 psi; 1-octene 100 uL; TNOAL 0.5 umol. The procedure:
as §1, §2, §3, §4, §5, §6, §7

Series [4] in a line: Solubility studies of the activators (saturated solution in isohexane or methylcyclohexane). Format: physicochemical. The procedure: Solubility Studies of the Activators
Procedure for Solid Activators.
A saturated solution of each of the solid ammonium borate activators was prepared by stirring an excess of the activator with either isohexane or methylcyclohexane solvent for several hours at 25° C. The mixture was then filtered and a known volume of the filtrate was evaporated to dryness in a tared vial. The vial was then weighed to determine the mass of activator that was dissolved in the aliquot. The concentration of the saturated solution is presented in millimoles of activator per liter of solution (mM).
Procedure for Activators that Form Emulsions.
A saturated solution of the activator was prepared by slowly adding the solvent to a pre-weighed amount of the activator. The final volume was determined as the minimum amount of solvent required to convert the emulsion into a homogeneous solution. The concentration of the saturated solution is presented in millimoles of activator per liter of solution (mM). Alternatively, an emulsion of the activator was prepared by adding the solvent to an excess amount of activator. The resulting emulsion was separated from the undissolved solids by decanting the emulsion into a tared vial. Solvent was then added dropwise until the emulsion became homogeneous. The mass of the final solution was measured and then the solvent was evaporated to dryness to obtain the mass of the activator. The concentration of the saturated solution is presented in millimoles of activator per liter of solution (mM).

Series [5] can be described thus: Ethylene-octene copolymerization in parallel pressure reactor, non-metallocene catalyst CAT-2. Particulars: catalyst CAT-2 20 nmol; activator 1.1 equiv; 100° C.; 135 psi; 1-octene 100 uL; TNOAL 0.5 umol. As for the experimental part:
as §1, §2, §3, §4, §5, §6, §7

Series [6] in a line: Ethylene-octene copolymerization in parallel pressure reactor, non-metallocene catalyst CAT-1. Particulars: catalyst CAT-1 20 nmol; activator 1.1 equiv; 100° C.; 135 psi; 1-octene 100 uL; TNOAL 0.5 umol. The procedure: as §1, §2, §3, §4, §5, §6, §7
The nature of series [7]: Ethylene homopolymerization (PE) in parallel pressure reactor, MCN-1. Particulars: MCN-1 = 20 nmol, activator = 22 nmol, 80° C., 75 PSI. As for the experimental part: Ethylene homopolymerization (PE).
A series of ethylene polymerizations were performed in the parallel pressure reactor sinilar to the procedure described above. In these studies rac-dimethylsilyl- bis(indenyl)hafnium dimethyl (MCN-1) was used along with ammonium borate activators .

Series [8] in a line: Ethylene-octene copolymerization (EO) in parallel pressure reactor, MCN-1 (Table 6). Particulars: MCN-1 = 20 nmol, activator = 22 nmol, 1-octene 100 μL, 80° C., 75 PSI. The procedure:
as §3, §4, §5
A series of ethylene-octene polymerizations were performed in the parallel pressure reactor according to a similar procedure as described above. In these studies rac-dimethylsilyl-bis(indenyl)hafnium dimethyl (MCN-1) was used along with ammonium borate activators.

Series [9] in a line: Propylene homopolymerization in parallel pressure reactor, MCN-1 with ammonium borate activators. Particulars: for activity: isohexane.
Excerpt: Polymerization in Parallel Pressure Reactor
Solvents, polymerization-grade toluene, and isohexane were supplied by ExxonMobil Chemical Company and purified by passing through a series of columns: two 500 cc Oxyclear cylinders in series from Labclear (Oakland, Calif.), followed by two 500 cc columns in series packed with dried 3 Å mole sieves (8-12 mesh; Aldrich Chemical Company), and two 500 cc columns in series packed with dried 5 Å mole sieves (8-12 mesh; Aldrich Chemical Company). 1-octene (C8) and 1-hexene (C6) (98%, Aldrich Chemical Company) were dried by stirring over NaK overnight followed by filtration through basic alumina (Aldrich Chemical Company, Brockman Basic 1).
as §1, §2
Catalyst systems dissolved in solution were used in the polymerization examples below, unless specified otherwise.
RUN A: Propylene Homopolymerization (PP).
The reactor was prepared as described above and purged with propylene. For the examples in Table 2, the catalyst and activator solutions were prepared in toluene. […] Isohexane was then injected into each vessel at room temperature followed by a predetermined amount of propylene gas. The reactor was heated to the set temperature while stirring at 800 rpm, and the scavenger, activator and catalyst solutions were injected sequentially to each vessel. The polymerization was allowed to proceed as described previously.
A series of propylene polymerizations were performed in parallel pressure reactors (PPRs) developed by Symyx Technologies, Inc. In these polymerizations, the metallocene rac-dimethylsilyl-bis(indenyl)hafnium dimethyl (MCN-1) was used along with several different ammonium borate activators. Polymerizations were performed at 85° C. and 100° C.
Propylene homopolymerization (PP).
A series of propylene polymerizations were performed in the parallel pressure reactor similar to the procedure described above. In these studies rac-dimethylsilyl-bis(indenyl)hafnium dimethyl (MCN-1) was used along with ammonium borate activators.

Setting [10] is: propylene, 100 °C, 150 psi, MCN-1 = 20 nmol, activator = 20 nmol, TNOAL 500 nmol.

In the case of `CCCCCCCCCCCCCCCCCC[NH+](CCCCCCCCCCCCCCCCCC)c1ccc(C)cc1.Fc1c(F)c(F)c([B-](c2c(F)c(F)c(F)c(F)c2F)(c2c(F)c(F)c(F)c(F)c2F)c2c(F)c(F)c(F)c(F)c2F)c(F)c1F` [DOdTH-BF20, 4-methyl-N,N-dioctadecylbenzenaminium-BF20], the “activity” value in series [1] was 46 kg/mmol/h and 48 kg/mmol/h; in [3], 647 kg/mmol/h and 732 kg/mmol/h; in [5], 1267 kg/mmol/h and 1154 kg/mmol/h; in [6], 3716 kg/mmol/h and 3736 kg/mmol/h. The “Solubility limit in MeCy (wt % at 25° C.)” value in [2] came out at 19 wt %. In addition, in series [4] (isohexane), the “Solubility limit in i-hexane (mM at 25° C.)” value is listed as 19 mM. Moreover, in series [4] (isohexane), the “Solubility limit in i-hexane (wt % at 25° C.)” value amounted to 3.7 wt %. Moreover, the “Solubility limit in MeCy (mM at 25° C.)” value in [4] (methylcyclohexane) is 110 mM.
Turning to `CCCCCCCCCCCCCCCCCC[NH+](C)c1ccc(CCCCCCCCCCC)cc1.Fc1c(F)c(F)c([B-](c2c(F)c(F)c(F)c(F)c2F)(c2c(F)c(F)c(F)c(F)c2F)c2c(F)c(F)c(F)c(F)c2F)c(F)c1F` [UOMAH-BF20], the “activity” value was 332.5 kg/mmol/h and 317.6 kg/mmol/h and 310.3 kg/mmol/h and 400.0 kg/mmol/h in [7]; 502.3 kg/mmol/h and 455.9 kg/mmol/h and 521.4 kg/mmol/h and 421.0 kg/mmol/h in series [8].
As for `CCCCCCCCCCCCCCCCCC[NH+](C)c1ccc(CCCCCCCCCCC)cc1.Fc1c(F)c(F)c2c(F)c([B-](c3c(F)c(F)c4c(F)c(F)c(F)c(F)c4c3F)(c3c(F)c(F)c4c(F)c(F)c(F)c(F)c4c3F)c3c(F)c(F)c4c(F)c(F)c(F)c(F)c4c3F)c(F)c(F)c2c1F` [UOMAH-BF28, 4-Undecyl-N-methyl-N-octadecylanilinium-BF28], the “activity” value in series [7] is 250.9 kg/mmol/h and 186.5 kg/mmol/h; in series [8] it was 366.1 kg/mmol/h and 358.9 kg/mmol/h.
For “Di(hydrogenated tallow)methylamine-BF20 [M2HTH-BF20]”, the “activity” value is 51 kg/mmol/h and 63 kg/mmol/h in series [1]; 46 kg/mmol/h and 30 kg/mmol/h and 36 kg/mmol/h in series [9] (setting [10]); 711 kg/mmol/h and 786 kg/mmol/h in series [3]; 806 kg/mmol/h and 755 kg/mmol/h in [5]; 2030 kg/mmol/h and 2214 kg/mmol/h in series [6].
“Di(hydrogenated tallow)methylamine-BF28 [M2HTH-BF28]”: the “activity” value is 48 kg/mmol/h and 65 kg/mmol/h in [1]; 187 kg/mmol/h and 167 kg/mmol/h and 160 kg/mmol/h in [9] (Activator Equiv 1.0, TNOAL 0.25 umol, MCN-1 30 nmol, 85° C., propylene 135 psi); 151 kg/mmol/h and 113 kg/mmol/h and 118 kg/mmol/h in [9] (Activator Equiv 1.0, TNOAL 0.50 umol, MCN-1 30 nmol, 85° C., propylene 135 psi); 102 kg/mmol/h and 95 kg/mmol/h in series [9] (Activator Equiv 1.0, TNOAL 0.75 umol, MCN-1 30 nmol, 85° C., propylene 135 psi); 203 kg/mmol/h and 195 kg/mmol/h and 166 kg/mmol/h in series [9] (Activator Equiv 1.2, TNOAL 0.25 umol, MCN-1 30 nmol, 85° C., propylene 135 psi); 169 kg/mmol/h and 153 kg/mmol/h in series [9] (Activator Equiv 1.2, TNOAL 0.50 umol, MCN-1 30 nmol, 85° C., propylene 135 psi). Moreover, the “activity” value in [9] (Activator Equiv 1.2, TNOAL 0.75 umol, MCN-1 30 nmol, 85° C., propylene 135 psi) is 119 kg/mmol/h and 104 kg/mmol/h; in series [9] (Activator Equiv 1.4, TNOAL 0.25 umol, MCN-1 30 nmol, 85° C., propylene 135 psi) it was 204 kg/mmol/h and 196 kg/mmol/h and 178 kg/mmol/h; in [9] (Activator Equiv 1.4, TNOAL 0.50 umol, MCN-1 30 nmol, 85° C., propylene 135 psi), 157 kg/mmol/h and 142 kg/mmol/h; in series [9] (Activator Equiv 1.4, TNOAL 0.75 umol, MCN-1 30 nmol, 85° C., propylene 135 psi), 127 kg/mmol/h and 103 kg/mmol/h; in series [9] (Activator Equiv 1.6, TNOAL 0.25 umol, MCN-1 30 nmol, 85° C., propylene 135 psi) it was 229 kg/mmol/h and 203 kg/mmol/h and 180 kg/mmol/h; in [9] (Activator Equiv 1.6, TNOAL 0.50 umol, MCN-1 30 nmol, 85° C., propylene 135 psi), 168 kg/mmol/h and 144 kg/mmol/h. Moreover, the “activity” value was 129 kg/mmol/h and 117 kg/mmol/h in [9] (Activator Equiv 1.6, TNOAL 0.75 umol, MCN-1 30 nmol, 85° C., propylene 135 psi); 75 kg/mmol/h and 55 kg/mmol/h in series [9] (propylene, 85 °C, 135 psi, MCN-1 = 20 nmol, activator = 20 nmol, TNOAL 500 nmol); 49 kg/mmol/h and 60 kg/mmol/h and 96 kg/mmol/h in series [9] (setting [10]); 825 kg/mmol/h and 863 kg/mmol/h in series [3]; 620 kg/mmol/h and 352 kg/mmol/h in series [5]; 2494 kg/mmol/h and 1709 kg/mmol/h in [6]. For the same compound, in series [9] (MCN-1, polypropylene at 100° C., Table 7 runs), the “average catalyst activity, comparison of the four activators (FIG. 6)” value was “much lower activity”.
